From patent publication US6514991B2, “Phenyl-oxo-tetrahydroquinolin-3-yl beta-3 adrenergic receptor agonists” (Wyeth, priority 2000, dated 2003)

Target: T1, β3-AR (Homo sapiens, UniProt P13945)
T1 construct: Full-length β3-AR clones (402 amino acids) containing the last 6 amino acids of hβ3-AR are prepared; expressed in transfected cells; host or cells: CHO cells
Experiment: cAMP accumulation (SPA) in CHO cells transfected with β3-AR
Assay type: cell-based
Conditions: for EC50: CHO cells transfected with human β3-AR, cAMP, 30 min incubation, 10^-9 to 10^-5 M; for IA(β3): maximal response relative to maximal response of isoproterenol at 10^-5 M
Method: The ability of the compounds of this invention to treat or inhibit disorders related to insulin resistance or hyperglycemia was confirmed with representative compounds of this invention in the following standard pharmacological test procedures, which measured the binding selectivity of the β1-, β2-, and β3-AR. Binding to the receptors was measured in Chinese Hamster ovary (CHO) cells that were transfected with β1-, β2-, and β3-AR's. The following briefly summarizes the procedures used and results obtained.
cDNA was constructed by ligating four polymerase chain reaction (PCR) products using the following primers: an ATG-Narl fragment, sense primer 5′-[…]3′ and anti-sense primer 5′ […]3′; a Narl-Accl fragment, 5′[…]3′ as sense and 5′[…]3′ as anti-sense primer; an Accli-Styl fragment, sense primer 5° […]3′ and anti-sense primer 5′[…]3′ and a Styl-TAG fragment, with sense primer 5° […]3′ and anti-sense primer 5° […]3′. The corresponding primer sequences are described in Mantzoros, C. S., et.al., Diabetes, 1996, 45, 909-914. The four fragments are ligated into a pUC 18 plasmid (Gibco-BRL) and sequenced. Full-length β3-AR clones (402 amino acids) containing the last 6 amino acids of hβ3-AR are prepared with the β3-βARpcDNA3 from ATTC.
Clones expressing receptor levels of 70 to 110 fmoles/mg protein were used in the test procedures. CHO cells were grown in 24-well tissue culture plates in Dulbecco's Modified Eagle Media with 10% fetal bovine serum, MEM non-essential amino acids, Penicillin-Streptomycin and Geneticin. On the day of test procedure, growth medium was replaced with preincubation media (Dulbecco's Modified Eagle Media) and incubated for 30 minutes at 37° C. Pre-incubation medium was replaced with 0.2 ml treatment medium containing DMEM media containing 250 μM IBMX (isobutyl-1-methylxantine) plus 1 mM ascorbic acid with test compound dissolved in DMSO. Test compounds were assayed over a concentration range of 10^−9 M to 10^−5M for β3-AR transfected cells and 10^−8 to 10^−4 M for […] transfected cells. Isoproterenol (10^−5 M) was used as an internal standard for comparison of activity. Cells were incubated at 37° C. on a rocker for 30 min with the β3-AR transfected cells and 15 min with β1-AR and β2-AR transfected cells. Incubation was stopped by the addition of 0.2N HCl and the acid was neutralized with 2.5N NaOH. The plates, containing the cells and neutralized media, were stored at −20° C. until ready to test for cAMP using the SPA test kit (Amersham).
Data collected from the SPA test procedure were analyzed as percent of the maximal isoproterenol response at 10^−5 M. Activity curves were plotted using the SAS statistical and graphics software.

T1 sequence (P13945 whole entry): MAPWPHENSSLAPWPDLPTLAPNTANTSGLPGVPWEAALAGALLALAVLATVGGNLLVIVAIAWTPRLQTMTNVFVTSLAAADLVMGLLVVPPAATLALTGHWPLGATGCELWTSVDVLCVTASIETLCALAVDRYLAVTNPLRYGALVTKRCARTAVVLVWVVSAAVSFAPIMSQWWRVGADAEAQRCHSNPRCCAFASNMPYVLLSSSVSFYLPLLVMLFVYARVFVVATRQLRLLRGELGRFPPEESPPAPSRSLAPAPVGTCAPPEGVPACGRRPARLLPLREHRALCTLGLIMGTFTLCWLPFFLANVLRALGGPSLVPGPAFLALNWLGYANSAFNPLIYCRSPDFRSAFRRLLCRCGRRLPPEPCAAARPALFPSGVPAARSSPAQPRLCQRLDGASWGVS

Molecule	EC50 [nM]	IA(β3)
Ethyl [6-(4-{[(2R)-2-hydroxy-2-{4-hydroxy-3-[(methylsulfonyl)amino]-phenyl}ethyl)amino]methyl}phenyl)-2-oxo-1,2,3,4-tetrahydroquinolin-3-yl]acetate [Example 4]	70	1.0
COC(=O)CC1Cc2ccc(-c3cccc(CNC[C@H](O)c4ccc(O)c(NS(C)(=O)=O)c4)c3)cc2NC1=O (stereo partly drawn) [Example 3, [7-(3-{[(2R)-2-Hydroxy-2-(4-hydroxy-3-methanesulfonylamino-phenyl)-ethylamino]-methyl}-phenyl)-2-oxo-1,2,3,4-tetrahydro-quinolin-3-yl]-acetic acid methyl ester]	60	1.0
CCOC(=O)CC1Cc2cc(-c3cccc(CNC[C@H](O)c4ccc(O)c(NS(C)(=O)=O)c4)c3)ccc2NC1=O (some centres unmarked) [Example 2]	90	1.0
COC(=O)CC1Cc2ccc(-c3ccc(CNC[C@H](O)c4ccc(O)c(NS(C)(=O)=O)c4)cc3)cc2NC1=O (stereo partly drawn) [Example 1, [7-(4-{[(2R)-2-Hydroxy-2-(4-hvdroxy-3-methanesulfonylamino-phenyl)-ethylamino]-methyl}-phenyl)-2-oxo-1,2,3,4-tetrahydro-quinolin-3-yl]-acetic Acid Methyl Ester]	40	1.1
